Experimental findings from ChEMBL document CHEMBL1131747, “Derivation of a possible transition-state for the reaction catalysed by the enzyme estrone Sulfatase (ES)” (Bioorg Med Chem Lett, 1999) are described below.

The structures appear in SMILES notation.

The term IC50 denotes the point on the concentration scale where inhibition reaches its midpoint.

For this assay, the target named is T1, Steryl-sulfatase (Homo sapiens, UniProt P08842).
T1 sequence (P08842 whole entry): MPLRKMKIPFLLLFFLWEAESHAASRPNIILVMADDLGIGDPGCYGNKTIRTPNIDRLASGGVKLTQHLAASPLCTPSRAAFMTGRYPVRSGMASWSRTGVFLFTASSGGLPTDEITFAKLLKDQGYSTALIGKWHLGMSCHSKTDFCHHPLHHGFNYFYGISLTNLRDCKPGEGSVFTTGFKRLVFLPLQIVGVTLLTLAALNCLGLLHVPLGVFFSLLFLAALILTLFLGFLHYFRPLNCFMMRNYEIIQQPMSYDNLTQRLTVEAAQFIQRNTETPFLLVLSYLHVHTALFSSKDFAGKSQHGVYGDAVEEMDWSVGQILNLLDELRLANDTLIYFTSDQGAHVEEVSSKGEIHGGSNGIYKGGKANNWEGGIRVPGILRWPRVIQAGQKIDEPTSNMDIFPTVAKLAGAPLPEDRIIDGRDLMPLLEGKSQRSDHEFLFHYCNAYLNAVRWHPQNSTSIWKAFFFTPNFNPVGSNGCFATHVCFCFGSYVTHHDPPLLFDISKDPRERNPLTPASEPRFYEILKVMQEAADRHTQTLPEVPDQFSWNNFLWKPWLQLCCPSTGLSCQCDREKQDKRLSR
Briefly: Inhibitory activity against estrone sulfatase enzyme.
As to `NS(=O)(=O)Oc1ccc2c(c1)CCCC2`, the IC50 turned out to be 1000 nM.

In the case of `CCCCCCCCCCCCCC(=O)NCCc1ccc(OS(N)(=O)=O)cc1`, the concentration for half-maximal inhibition (IC50) was found to be 55.8 nM. Compound `C[C@]12CC[C@@H]3c4ccc(OS(N)(=O)=O)cc4CCC3[C@@H]1CCC2=O` (single isomer, unassigned) [EMATE] gave a 50% inhibitory concentration (IC50) of 0.065 nM.
